Several values for one entry are separate records, joined by “and”; a condition that tells them apart may be missing. Equal values may be shown once. Read-outs that look alike come from different tables or passages of the source.
Columns and labels:
[1] = test system: glycine modulatory site of the NMDA receptor-channel complex; assay type: cell-based, rat; details: for Effect on glycine-potentiated NMDA-induced current: gabapentin 10 μM with glycine 1 μM and strychnine 10 μM, reversed on washing; for Effect on glycine-potentiated NMDA-induced current / Effect on NMDA-induced current in the absence of glycine: acetic acid; for Effect on NMDA-induced current in the absence of glycine: gabapentin 10 μM, bath application, reversed on washing for four minutes
Description: Whole-cell patch clamp techniques were employed to investigate the effects of the antiepileptic drug, gabapentin, upon the responses of striatal neurons in dissociated culture to NMDA.
Striata were aseptically dissected from 16-day-old rat fetuses and mechanically triturated in enzyme-free Puck's saline (Gibco, UK). The resulting suspension was diluted to 1×10^6 cells/mL using freshly prepared medium. The medium was composed of Minimal essential medium with Earle's salts and included Fetal calf serum (5% v/v), Horse serum (5% v/v), L-Glutamine (2 mM), Insulin ([…]), and HEPES (5 mM) buffer (all Gibco, UK).
The cells were plated onto Poly-L-ornithine ([…]; Sigma) coated glass coverslips (diameter 13 mm) and incubated at 37° C. in a humidified atmosphere of 95% Air/5% CO2.
After seven days, the media was replaced with freshly prepared media containing (+)-5-fluoro-deoxyuridine (10 μM; Sigma) to inhibit the proliferation of nonneuronal elements. Cultures were subsequently fed twice weekly.
Patch electrodes with ohmic resistances of 6-10 M .OMEGA. were filled with an intracellular solution of the following composition (all mM); CsF 140.0, CaCl2 0.5, NaCl 1.0, K-EGTA 5.0 and HEPES 10.0. All recordings were made at 20°-22° C. using a List EPC7 amplifier and the resulting signal was filtered at 10 KHz. Fast and slow transient capacity compensation was employed, and cells were voltage clamped at a holding potential of -70 mV, unless otherwise stated.
Drugs were dissolved to a known concentration in the extracellular solution and were applied via the perfusion system. NMDA was applied via the perfusion system, or by rapid pressure ejection. All drugs were obtained from Sigma, except gabapentin which was synthesized at Goedecke (Warner-Lambert) Germany.

[2] = test system: NMDA receptor-channel complex; assay: Intracellular recording of NMDA-induced depolarization, paraventricular thalamus (PVT) neurones in brain slices; assay type: cell-based, rat; details: gabapentin 300 μM
Description: (§1) Intracellular recordings were made from neurones of either paraventricular thalamus (n =8, 7 slices) or CA1 region of the hippocampus (n =5, 5 slices) contained in […] rat brain slices. NMDA applied via the perfusion system, produced a concentration-dependent depolarization of all neurones tested. In every case but one, control response to NMDA was reduced by a concomitant application of gabapentin (300 μM). The concentration-response curves for NMDA in the presence and absence of gabapentin show a noncompetitive interaction of gabapentin with NMDA receptor-channel complex.
(§2) Coronal slices of rat brain at the level of the ventromedial hypothalamus were chosen since these contain both hippocampus and paraventricular thalamus (PVT). Slices were perfused in normal (1.3 mM magnesium) artificial cerebrospinal fluid (ACSF) at 3 mL/min. Conventional intracellular recording techniques were employed, using 1M potassium acetate-filled electrodes pulled on a Brown-Flaming microelectrode puller type P-87.
Drugs were made up as stock solutions in distilled water (NMDA 50 mM; gabapentin 100 mM) and stored frozen prior to use. The required concentrations of each drug were obtained by direct dilution with ACSF at the time of the experiment. Control dose-response curves for NMDA were obtained either in the presence or absence of tetrodotoxin (TTX). NMDA was applied to a 30-second period, with at least five minutes between successive doses. Gabapentin was added to the same NMDA-containing solutions and the dose-response curves repeated. Experiments were also performed using repeated single doses of NMDA to ensure that the effects of gabapentin were not due to rundown of the NMDA response.

[3] = test system: NMDA receptor-channel complex; assay: Intracellular recording of NMDA-induced depolarization, CA1 hippocampal neurones in brain slices; assay type: cell-based, rat; details: gabapentin 300 μM
Description: as §1, §2
Drugs were made up as stock solutions in distilled water (NMDA 50 mM; gabapentin 100 mM) and stored frozen prior to use. The required concentrations of each drug were obtained by direct dilution with ACSF at the time of the experiment. Control dose-response curves for NMDA were obtained either in the presence or absence of tetrodotoxin (TTX). […]

[4] = test system: seizures elicited by 4-aminobutanoic acid (GABA) synthesis or GABA receptor antagonists; details: mice; cited from earlier work
[5] = test system: seizures elicited by NMDA; details: in vivo; cited from earlier work
GABA = details: cited from earlier work
GABAB = details: cited from earlier work
neuronal GABA uptake = details: cited from earlier work
[6] = in vivo; cited from earlier work
[7] = in vivo; cited from earlier work; remark: listed apart in the source

## NCC(=O)O [Glycine, reference compound]
[1]
  Effect of glycine on NMDA-induced peak current: potentiation of the NMDA induced peak current
[1]; NMDA 100 μM bath application, glycine 1 μM
  Effect of glycine on sustained inward current produced by bath application of NMDA: markedly potentiated
[1]; striatal neurons
  Peak Inward Current (pA), relative to NMDA = 100%: 589 ± 156% and 713 ± 260%

## NCC1(CC(=O)O)CCCCC1 [gabapentin, 1-aminomethyl-cyclohexane acetic acid]
[1]; Table 2, NMDA + 10 μM GABA-P, no exogenous glycine, n = 4
  Peak Inward Current (pA), relative to NMDA = 100%: 305 ± 88%
[1]; Table 2, NMDA after 'wash' of 10 μM GABA-P, n = 4
  Peak Inward Current (pA), relative to NMDA = 100%: 106 ± 9%
[1]; Table 3, 'wash' of GABA-P, NMDA + 1 μM Glycine + 10 μM Strychnine, n = 3
  Peak Inward Current (pA), relative to NMDA = 100%: 257 ± 418%
[1]; Table 3, NMDA + 1 μM Glycine + 10 μM Strychnine + 10 μM GABA-P, n = 3
  Peak Inward Current (pA), relative to NMDA = 100%: 201 ± 24%
[1]
  Effect on glycine-potentiated NMDA-induced current: antagonism of the glycine-induced potentiation of the NMDA-induced current
  Effect on NMDA-induced current in the absence of glycine: potentiation of the NMDA-induced current
[1]; listed as Gabapentin
  Effect on glycine-potentiated NMDA-induced current: antagonism of the glycine-potentiated NMDA current
  Effect on NMDA-induced current in the absence of glycine: reversible potentiation of the NMDA-induced current
[2]; 100 μM NMDA for 30 s, TTX present, thalamic neurones (FIG. 5)
  Reduction of NMDA depolarization: ~60%
[2]; NMDA dose-response curves, PVT neurones (FIG. 6B)
  Nature of the block of the NMDA response: noncompetitive
[2]; high (30 to 50 μM) concentrations of NMDA, PVT neurones
  Effect on response (depolarization) to NMDA: reduced
[3]; CA1 hippocampal neurones, more evident as NMDA concentration increased
  Effect on NMDA-induced depolarization: reduction in the NMDA-induced depolarization
[3]; NMDA dose-response curves, hippocampus (FIG. 8B)
  Nature of the block of the NMDA response: noncompetitive
[4]
  Protection from seizures: protect mice from seizures
[5]
  Latency of onset of seizures elicited by NMDA: prolong the latency of onset of seizures
GABA
  Displacement of GABA binding: does not displace
GABAB
  Displacement of GABAB binding: does not displace
Neuronal GABA uptake
  Interference with neuronal GABA uptake: does not interfere with neuronal GABA uptake
[6]
  Metabolism in the body: not metabolized in the body
[7]
  Tolerability: well tolerated
  Toxicity: relatively nontoxic

— patent publication US5084479A, “Novel methods for treating neurodegenerative diseases” (priority 1990, dated 1992)
